Experimental data as given in patent publication US5668168A, “1,2-dithiin antiinfective agents” (Shaman Pharmaceuticals, Inc., priority 1995, dated 1997).
In brackets after ≈: the same amount, converted by molar mass. Where two headings read alike, the source gives them in different places.

Assays:
[1] = test system: Candida albicans ATCC 10259; test: In vitro susceptibility, microdilution broth MIC, C. albicans ATCC 10259; type: cell-based; conditions: ATCC10259, 48 h
Method: (§1) MIC tests were performed by a microdilution broth assay. The fungi tested were Candida albicans ATCC 10259 and strain B311, Cryptococcus neoformans ATCC 36556, Aspergillus fumigatus ATCC 13073, and Trichophyton rubrum ATCC 18762. The yeasts were propagated on yeast morphology agar, while the filamentous fungi were grown on Sabouraud's agar. All tests were performed in Sabouraud's broth in 96-well microliter plates, with compounds diluted serially, then inoculated with 2×10^4 cfu/ml for C. albicans, 4×10^4 cfu/ml for C. neoformans, 1×10^3 cfu/ml for A. fumigatus, and 1×10^3 cfu/ml for T. rubrum (all expressed as final concentrations). Plates were incubated at 30° C. for 48 h for all fungi except T. rubrum, which was incubated for 5 days. MIC's were read as the lowest concentration completely inhibiting growth. After MIC endpoints were determined, 50 ul portions were removed and plated on yeast morphology agar to detect viable organisms, and were incubated at 30° C. for 48 h. The MFC was determined to be the well with the lowest concentration resulting in no growth.

[2] = test system: Cryptococcus neoformans ATCC 36556; test: In vitro susceptibility, microdilution broth MIC, C. neoformans; type: cell-based; conditions: ATCC36556, 48 h
Method: as §1

[3] = test system: Aspergillus fumigatus ATCC 13073; test: In vitro susceptibility, microdilution broth MIC, A. fumigatus; type: cell-based; conditions: ATCC13073, 48 h
Method: as §1

[4] = test system: Candida albicans strain B311; test: In vitro susceptibility, microdilution broth MIC, C. albicans B311; type: cell-based; conditions: Table 1a, Sabouraud's broth, 30° C., 48 h
Method: as §1

[5] = test system: Candida albicans strain B311; test: Minimum fungicidal concentration (MFC), C. albicans B311; type: cell-based; conditions: B311, 48 h, Table 1a, seventh value column, read-out: MIC (as headed), C. albicans B311 (MFC)
Method: as §1

[6] = test system: Trichophyton rubrum ATCC 18762; test: In vitro susceptibility, microdilution broth MIC, T. rubrum; type: cell-based; conditions: ATCC18762, 120 h, Table 1a, Sabouraud's broth, 30° C., 5 days
Method: as §1

[7] = test system: Candida albicans ATCC 10259; test: Minimum fungicidal concentration (MFC), C. albicans ATCC 10259; type: cell-based; conditions: ATCC10259, 48 h, read-out: MIC (as headed), C. albicans 10259 (MFC)
Method: as §1

[8] = isolated from Aspilia mossambicesis and A. plurisetta; literature; cited from earlier work
fungi = test: In vitro susceptibility tests (MIC and MFC), overall statements; type: cell-based; conditions: Candida, Cryptococcus, Aspergillus, medically important fungi
Method: as §1

ICR mice = test: Systemic toxicology test in ICR mice, intraperitoneal; type: in vivo; conditions: three consecutive days
Method: (§2) Thiarubrine A and the novel 3,6-bis(hydroxymethyl)-1,2-dithiin have also been evaluated for their systemic toxicity potential. ICR mice, in groups of five or six each were injected with solutions of the test compound given intraperitoneally for three consecutive days for thiarubrine A and five consecutive days for the 1,2-dithiin. Animals were weighed daily and observed for mortalities over a 14 day period. An LD50 of 0.6 mg/kg for thiarubrine A was determined.

[9] = as above; type: in vivo; conditions: mouse, in vivo, ip
Method: as §2

[10] = test system: dermal irritation and erythema, ear of ICR mice; test: Dermal toxicology (irritation) test in ICR mice; type: in vivo; conditions: 10 mg topically
Method: Thiarubrine A and a new 1,2-dithiin compound 3,6-bis(hydroxymethyl)-1,2-dithiin were tested for the ability to elicit dermal irritation in ICR mice. Animals in groups of five each were lightly anesthetized, then the test substance, previously dissolved in aquaphor, was applied in the amount of 10 mg topically to the dorsal aspect of the right ear. Aquaphor without test substance was applied to the left ear as a control. Animals were inspected daily for five days for signs of dermal irritation and erythema, which was scored subjectively on a scale from 1 to 15, with 15 indicating severe toxicity.

[11] = Table 1b, Sabouraud's broth, 30° C., read-out: MIC C. albicans 10259
[12] = Table 1b, Sabouraud's broth, 30° C., read-out: MIC C. neoformans
[13] = Table 1b, Sabouraud's broth, 30° C., read-out: MIC A. fumigatus
[14] = Table 1a, Sabouraud's broth, 30° C., read-out: MIC C. albicans 10259
[15] = Table 1a, Sabouraud's broth, 30° C., read-out: MIC C. neoformans
[16] = Table 1a, Sabouraud's broth, 30° C., read-out: MIC A. fumigatus

MIC [1, 11] [µg/mL]	MIC [2, 12] [µg/mL]	MIC [3, 13] [µg/mL]	MIC [1, 14] [µg/mL]	MIC [2, 15] [µg/mL]	MIC [3, 16] [µg/mL]	Structure (SMILES)	MFC ([7]; Table 1a) [µg/mL]	further results
6.3 (≈ 20.2 µM)	3.1 (≈ 9.92 µM)	1.6 (≈ 5.12 µM)	–	–	–	O=C(OCC1=CC=C(COC(=O)C2CC2)SS1)C1CC1 [Dithiin I, 3,6-Bis(cyolopropanecarbonyloxymethyl)-1,2-dithiin]	–	–
–	–	–	31 (≈ 117 µM)	8 (≈ 30.3 µM)	63 (≈ 238 µM)	COCOCC1=CC=C(COCOC)SS1 [Dithiin D]	> 250	MIC [4]: 125 µg/mL (≈ 473 µM); MFC [5]: 125 µg/mL (≈ 473 µM); MIC [6]: 8 µg/mL (≈ 30.3 µM)
12.5 (≈ 43.3 µM)	6.3 (≈ 21.8 µM)	3.1 (≈ 10.7 µM)	–	–	–	CCC(=O)OCC1=CC=C(COC(=O)CC)SS1 [Dithiin G, 3,6-Bis(propionyloxymethyl)-1,2-dithiin]	–	–
–	–	–	–	–	–	C=CC#CC1=CC=C(C#CC#CC)SS1 [thiarubrine B]	–	Biological activity (in words) [8]: wide spectrum of biological activity including antiviral and antibiotic activities
> 100	> 100	> 100	–	–	–	CC(C)C(=O)OCC1=CC=C(COC(=O)C(C)C)SS1 [Dithiin H, 3,6-Bis(isobutyryloxymethyl)-1,2-Dithiin]	–	–
–	–	–	12.5 (≈ 78 µM)	–	–	CC1=CC=C(CO)SS1 [Dithiin C]	–	–
3.1 (≈ 12.7 µM)	1.6 (≈ 6.55 µM)	0.8 (≈ 3.27 µM)	–	–	–	O=C(OCC1=CC=C(CO)SS1)C1CC1 [Dithiin J]	–	–
–	–	–	–	–	–	C=CC#CC#CC1=CC=C(C#CC)SS1 [Thia A, thiarubrine A]	–	Biological activity (in words) [8]: wide spectrum of biological activity including antiviral and antibiotic activities; MIC ([1]; read-out: MIC C. albicans 10259, Table 1a, Sabouraud's broth, 30° C.): 0.15 µg/mL (≈ 0.657 µM); MIC ([1]; read-out: MIC C. albicans 10259, Table 1b, Sabouraud's broth, 30° C.): 0.39 µg/mL (≈ 1.71 µM); Systemic toxicity (in words) (ICR mice): highly toxic; LD50 at 336 h ([9]; three consecutive days, 14 day observation, read-out: LD50): 0.6 mg/kg; LD50 at 336 h ([9]; total dose over three days, read-out: LD50, total dose): ~1.8 mg/kg; MIC ([2]; read-out: MIC C. neoformans, Table 1a, Sabouraud's broth, 30° C.): 0.61 µg/mL (≈ 2.67 µM); MIC ([2]; read-out: MIC C. neoformans, Table 1b, Sabouraud's broth, 30° C.): 0.78 µg/mL (≈ 3.42 µM); MIC ([3]; read-out: MIC A. fumigatus, Table 1a, Sabouraud's broth, 30° C.): 0.15 µg/mL (≈ 0.657 µM); MIC ([3]; read-out: MIC A. fumigatus, Table 1b, Sabouraud's broth, 30° C.): 0.1 µg/mL (≈ 0.438 µM); MFC [7]: 0.3 µg/mL (≈ 1.31 µM); Dermal irritation and erythema ([10]; five days): pronounced toxicity; Average score for dermal irritation, treated ear, Day 3 ([10]; Day 3, scale 1 to 15): 7; Average score for dermal irritation, treated ear, Day 4 ([10]; Day 4, scale 1 to 15): 9; Average score for dermal irritation, treated ear, Day 5 ([10]; Day 5, scale 1 to 15, control ear 4): 9; Average score for dermal irritation, treated ear, Day 2 ([10]; first column pair of Table 2, headed Day 2, scale 1 to 15): 4; Average score for dermal irritation, treated ear, Day 2 ([10]; second column pair of Table 2, headed Day 2, scale 1 to 15): 6
–	–	–	8 (≈ 46.4 µM)	4 (≈ 23.2 µM)	8 (≈ 46.4 µM)	O=CC1=CC=C(C=O)SS1 [Dithiin E, 3,6-Diformyl-1,2-dithiin]	8 (≈ 46.4 µM)	MIC [4]: 8 µg/mL (≈ 46.4 µM); MFC [5]: 8 µg/mL (≈ 46.4 µM); MIC [6]: 4 µg/mL (≈ 23.2 µM)
3.1 (≈ 11.9 µM)	0.8 (≈ 3.07 µM)	0.2 (≈ 0.768 µM)	3.1 (≈ 11.9 µM)	0.8 (≈ 3.07 µM)	0.4 (≈ 1.54 µM)	CC(=O)OCC1=CC=C(COC(C)=O)SS1 [Dithiin B, 3,6-Bis(acetyloxymethyl)-1,2-dithiin]	6.3 (≈ 24.2 µM)	–

Structure (SMILES)	MIC [1, 11] [µg/mL]	MIC [2, 12] [µg/mL]	MIC [3, 13] [µg/mL]	MIC [1, 14] [µg/mL]	MIC [2, 15] [µg/mL]	MIC [3, 16] [µg/mL]	MFC ([7]; Table 1a) [µg/mL]	further results
OCC1=CC=C(CO)SS1 [Dithiin A, 3,6-Bis(hydroxymethyl)-1,2-dithiin]	25 (≈ 142 µM)	1.6 (≈ 9.08 µM)	6.3 (≈ 35.7 µM)	16 (≈ 90.8 µM)	2 (≈ 11.3 µM)	16 (≈ 90.8 µM)	63 (≈ 357 µM)	MIC [4]: 31 µg/mL (≈ 176 µM); In vitro antifungal activity (in words) (fungi): potent broad spectrum antifungal activity; MIC [6]: 16 µg/mL (≈ 90.8 µM)
